# Paper PMC11587510, “Aromatic Amino Acid Hydroxylases as Off-Targets of Histone Deacetylase Inhibitors” (ACS Chemical Neuroscience, 2024)
# Entries after “also recorded” stand apart in the source; their conditions may differ.
# Key:
# [1] = molecular target: T1, TPH1 (Homo sapiens, UniProt P17752); assay: Steady-state kinetic study of TPH1 inhibition; format: biochemical
# T1 construct: doubly truncated human TPH1 (ΔNH102-ΔCOOH402); made in house; host or cells: E. coli BL21(DE3)
# Method: Steady-state kinetic studies were performed to explore the mode of inhibition. […] TPH1 and TH activity assays were performed as indicated above in the absence and presence of three different compound concentrations (TPH1: 0–100 μM; TH: 0–25 μM). Product formation was measured either at a fixed concentration of the cofactor BH4 (200 μM) and varying concentrations of L-Trp (0.937–60 μM) or L-Tyr (3.125–50 μM), respectively, or in the presence of varying concentrations of BH4 (TPH1:12.5–400 μM; TH: 7.4–200 μM) and a fixed concentration of amino acid substrates: 30 μM of L-Trp or 50 μM of L-Tyr, respectively. Kinetic parameters were obtained from the Michaelis–Menten model using nonlinear regression fit [drawing 3] where Vmax is the maximum enzyme velocity and Km the Michaelis–Menten constant.
# Lineweaver–Burk plots were obtained by plotting the reciprocal of the rate of the enzyme reaction (1/V) versus the reciprocal substrate concentration (1/[S]) in the absence and presence of compounds.
# [2] = tested on: PAH; settings: proteome profiling study; cited from earlier work
# [3] = molecular target: TH (Homo sapiens, UniProt P07101); assay: Steady-state kinetic study of TH inhibition; format: biochemical; settings: for TH Vmax (µmol/(min*mg)): BH4 7.4 – 200 µM / L-Tyr 50 µM
# Sequence of TH (P07101 1-497 isoform P07101-3): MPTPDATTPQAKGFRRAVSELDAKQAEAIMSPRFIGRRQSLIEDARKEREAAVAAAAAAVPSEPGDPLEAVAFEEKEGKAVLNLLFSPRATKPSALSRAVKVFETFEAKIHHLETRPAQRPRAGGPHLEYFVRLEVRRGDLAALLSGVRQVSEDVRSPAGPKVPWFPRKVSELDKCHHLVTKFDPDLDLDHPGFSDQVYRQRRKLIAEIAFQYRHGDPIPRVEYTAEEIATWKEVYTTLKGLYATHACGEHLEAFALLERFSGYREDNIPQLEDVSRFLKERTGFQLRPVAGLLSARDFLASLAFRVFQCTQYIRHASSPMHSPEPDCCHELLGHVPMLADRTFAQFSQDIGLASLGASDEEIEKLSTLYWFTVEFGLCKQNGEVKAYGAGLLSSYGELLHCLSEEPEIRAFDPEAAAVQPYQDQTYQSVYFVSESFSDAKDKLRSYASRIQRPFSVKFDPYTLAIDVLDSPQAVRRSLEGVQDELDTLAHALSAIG
# Method: Steady-state kinetic studies were performed to explore the mode of inhibition. […] TH: 0-25 μM). […] Kinetic parameters were obtained from the Michaelis-Menten model using nonlinear regression fit [drawing 3] where Vmax is the maximum enzyme velocity and Km the Michaelis-Menten constant. Lineweaver-Burk plots were obtained by plotting the reciprocal of the rate of the enzyme reaction (1/V) versus the reciprocal substrate concentration (1/[S]) in the absence and presence of compounds.
# [4] = molecular target: T2, endogenous PAH (Homo sapiens, UniProt P00439); assay: Cellular thermal shift assay (CETSA) in HepG2 cells; format: cell-based; settings: 50 μM compound, 1 h, vs DMSO
# T2 construct: increased melting temperatures (ΔTm) of endogenous PAH; endogenous in cells; host or cells: HepG2
# T2 sequence (P00439 1-452): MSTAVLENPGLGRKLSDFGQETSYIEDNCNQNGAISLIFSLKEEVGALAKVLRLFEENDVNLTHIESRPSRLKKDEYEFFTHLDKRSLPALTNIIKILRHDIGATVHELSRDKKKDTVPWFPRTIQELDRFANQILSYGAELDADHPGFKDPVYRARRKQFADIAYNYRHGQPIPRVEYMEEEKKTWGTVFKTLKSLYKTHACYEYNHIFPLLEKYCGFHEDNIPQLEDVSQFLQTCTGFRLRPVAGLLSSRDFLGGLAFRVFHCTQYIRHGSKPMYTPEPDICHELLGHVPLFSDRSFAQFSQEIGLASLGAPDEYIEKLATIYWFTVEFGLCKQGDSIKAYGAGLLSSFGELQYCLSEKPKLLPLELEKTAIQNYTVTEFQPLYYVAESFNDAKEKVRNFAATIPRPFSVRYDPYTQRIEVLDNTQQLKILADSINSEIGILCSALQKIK
# Method: Then, cells were washed, harvested using trypsin, and pelleted by centrifugation. The pellet was washed twice with PBS supplemented with complete EDTA-free protease inhibitor cocktail (Roche) and divided into 14 aliquots of 35 μL containing 800,000 cells. Cells were then frozen in liquid nitrogen and thawed at 25 °C three times, and each aliquot was heated to a defined temperature by applying a gradient between 39 °C and 69 °C in a thermocycler (peQSTAR, PeQlab; 16-well gradient, 54 °C ± 15 °C). After 3 min incubation, aliquots were snap frozen in liquid nitrogen and thawed at 25 °C. Cell lysates were centrifuged at 20,000 g (4 °C) for 20 min. Supernatants were mixed with 5x loading buffer, heated to 70 °C for 5 min and analyzed by Western blotting. Chemoluminescence signals were recorded with a FusionSL, Vilber Lourmat (peQlab) and quantified using FusionCapt Advance FX7 16.01c software. Calculation of ΔTm was conducted using the Boltzmann sigmoidal model in GraphPad prism 7.01.
# Cell lysates used for Western blot analysis were prepared as described in the Methods section (Cellular Thermal Shift Assay). […] Chemoluminescence signals were recorded with an FusionSL, Vilber Lourmat (peQlab) and quantified using FusionCapt Advance FX7 16.01c software.
# [5] = EG22 5 μM, BH4 12.5–400 μM/L-Trp 30 μM
# [6] = EG22 5 μM, L-Trp 0.937–60 μM/BH4 200 μM
# [7] = EG22 30 μM, BH4 12.5–400 μM/L-Trp 30 μM
# [8] = EG22 30 μM, L-Trp 0.937–60 μM/BH4 200 μM
# [9] = EG22 100 μM, BH4 12.5–400 μM/L-Trp 30 μM
# [10] = EG22 100 μM, L-Trp 0.937–60 μM/BH4 200 μM
# T1 sequence (P17752 102-402): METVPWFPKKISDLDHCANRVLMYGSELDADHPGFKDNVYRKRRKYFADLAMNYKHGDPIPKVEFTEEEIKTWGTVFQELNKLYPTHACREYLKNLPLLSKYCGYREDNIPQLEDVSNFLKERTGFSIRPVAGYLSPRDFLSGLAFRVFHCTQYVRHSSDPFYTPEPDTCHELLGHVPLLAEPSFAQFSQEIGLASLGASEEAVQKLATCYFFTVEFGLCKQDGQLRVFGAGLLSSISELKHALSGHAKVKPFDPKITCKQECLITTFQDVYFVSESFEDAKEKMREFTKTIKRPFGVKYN
smiles,measurement,setting,value
"O=C(NO)c1ccc(Cl)c(C(=O)Nc2ccc(Cl)cc2)c1 [EG22, 4-Chloro-3-(4-chlorophenylcarbamoyl)-N-hydroxybenzamide]","mode of TPH1 inhibition, varying BH4 and fixed L-Trp",[1]; EG22 0–100 μM,competitive inhibition; also recorded: mainly competitive
same,"mode of TPH1 inhibition, varying L-Trp and fixed BH4",[1]; EG22 0–100 μM,apparent mixed/uncompetitive inhibition; also recorded: mixed noncompetitive/uncompetitive
same,Km,[1]; [5],22.3 ± 6.8 µM
same,TPH1 Vmax (μmol/(min·mg)),[1]; [5],3.4 ± 0.2 µmol/min/mg
same,Km,[1]; [6],11.7 ± 1.1 µM
same,TPH1 Vmax (μmol/(min·mg)),[1]; [6],4.4 ± 0.2 µmol/min/mg
same,Km,[1]; [7],53.8 ± 11.2 µM
same,TPH1 Vmax (μmol/(min·mg)),[1]; [7],3.0 ± 0.2 µmol/min/mg
same,Km,[1]; [8],7.5 ± 1.3 µM
same,TPH1 Vmax (μmol/(min·mg)),[1]; [8],3.0 ± 0.2 µmol/min/mg
same,Km,[1]; [9],76.9 ± 12.5 µM
same,TPH1 Vmax (μmol/(min·mg)),[1]; [9],2.8 ± 0.2 µmol/min/mg
same,Km,[1]; [10],5.5 ± 0.8 µM
same,TPH1 Vmax (μmol/(min·mg)),[1]; [10],2.4 ± 0.1 µmol/min/mg
"Cc1[nH]c2ccccc2c1CCNCc1ccc(/C=C/C(=O)NO)cc1 [panobinostat, reference compound]",IC50,[2],200 nM
same,mode of TH inhibition versus the amino acid substrate,[3]; panobinostat,mixed noncompetitive/uncompetitive
same,mode of TH inhibition toward BH4,[3]; panobinostat 0–25 μM,mixed competitive/noncompetitive inhibition; also recorded: mainly competitive
same,TH Vmax (µmol/(min*mg)),[3]; panobinostat 2.5 µM,1.0 ± 0.1 µmol/min/mg
same,TH Vmax (µmol/(min*mg)),[3]; panobinostat 10 µM,0.32 ± 0.033 µmol/min/mg
same,TH Vmax (µmol/(min*mg)),[3]; panobinostat 25 µM,0.23 ± 0.029 µmol/min/mg
same,ΔTm at 50 µM,[4],3.7 °C
